Experimental data as given in patent publication US20060240127A1, “Use of agomelatine in obtaining medicaments intended for the treatment of bipolar disorders” (priority 2005, published 2006).

System: patients suffering from bipolar disorders of type I
Assay: Clinical study of agomelatine in type I bipolar patients treated with lithium or valproate
Assay type: in vivo
Description: This study was carried out in 21 patients suffering from bipolar disorders of type I, treated for at least 6 months with lithium (n =14) or valproate (n=7). Treatment for 6 weeks with agomelatine (25 mg/day) was carried out. Of these patients, 19 continued treatment beyond the 6 weeks of acute treatment, and 11 of those continued treatment up to 1 year.

COc1ccc2cccc(CCNC(C)=O)c2c1 [agomelatine, N-[2-(7-methoxy-1-naphthyl)ethyl]acetamide]
patients in remission at the end of the one year treatment period (11 patients who continued treatment up to 1 year, agomelatine 25 mg/day with lithium or valproate): 10 out of the 11
manic or hypomanic episodes observed after the 6 weeks of treatment (19 patients who continued beyond 6 weeks, 11 of them up to 1 year, level compatible with a mood stabiliser): three
patients responded positively to the treatment (21 type I bipolar patients on lithium or valproate, agomelatine 25 mg/day, 6 weeks treatment): 81%
patients responded positively by the end of one week of treatment (21 type I bipolar patients on lithium or valproate, agomelatine 25 mg/day, end of one week): about 50%
